Patent US20020018762A1, “Utilizing camptotheca products for termite control” (priority 2000, published 2002)
Read-outs that look alike come from different tables or passages of the source.

How the values were obtained:
[1] = test system: subterranean termites (Reticultitermes virginicus)
Procedure: 60 active subterranean termites (Reticultitermes virginicus) were grown in 9 cm Petri dishes in dark with 15 termites (10 soldiers and 5 workers) in each of four dishes. In each dish, a filter paper is placed on the bottom of the dish to retain moisture along with a piece of treated southern yellow pine wood (decayed, 3×3×7 cm). The wood was treated with one of the following natural products isolated from Camptotheca acuminata or water (as control) for 30 minutes and then dried: (1) pure CPT (>97%) (camptothecin, 3.8 mg/l=3.8 ppm, with water as the solvent); (2) raw extraction of CPTs from young tissues (alkaloids: 8.75 mg/l=8.75 ppm, with 95% ethanol as the solvent); (3) flavonoids (13.9 mg/l=13.9 ppm with water as the solvent); and (4) water (control). The termites and wood condition were checked and recorded every hour for the first 12 hours and every 8 hrs thereafter. The observation period was 4 weeks (May 17 to Jun. 14, 2000).

[2] = test system: termites (including drywood termite, Incistermes snyderi); experiment: Field test of termite resistance of sprayed southern yellow pine boards (Example 3); assay type: in vivo
Procedure: There were 4 treatments including 3 pieces of sound southern yellow pine boards (30×9×4 cm) each. The wood was treated with either a natural product isolated from Camptotheca acuminata or water as a control. […] The boards were randomly placed on the ground where no termites were observed. The wood condition and termite activity were checked and recorded every week beginning May 20, 2000.

[3] = Water soak of Camptotheca stakes, HPLC analysis of extracted flavonoids and CPTs (Example 5, FIG. 3); assay type: physicochemical
Text: For example, the Camptotheca wood containing CPTs (CPT concentrations: 30-100 ppm) after extraction of flavonoids may be used in preparation of termite-resistant wood products such as composition boards, particleboards, and fiberboards. FIG. 3 illustrates the effect of a water soak on the content of flavonoids and CPT over time.
In July 2000, we conducted an experiment with several pieces of Camptotheca stakes (c. 10 cm in length and 3 cm in diameter) soaked in nanopure water. A month later, water samples were collected from the water with stakes and only water (as control) for HPLC analysis.

[4] = Effect of the particleboard process on CPT content (FIG. 4); assay type: physicochemical; details: heat and pressure pressing
Text: Particleboard is an engineered wood product used as core material in the construction of home and office furniture, shelving and kitchen cabinets, as well as commercial and institutional fixtures. The major source for the manufacture of particleboard is southern yellow pine. Termite-resistant particleboard is not available. The present invention provides a method of preparing termite-resistant particleboards by including 30-70% Camptotheca wood in combination with currently-existing particleboard materials, e.g., pine, in a process as shown in Example 6. […] Similarly, the CPT content 260 in the raw material from bark and wood 290 and the particleboard from bark and wood 300 remained the same after the particleboard process.
Termite-resistant particleboards were prepared in accordance with the invention, using southern yellow pine mixed with natural Camptotheca acuminata wood after extraction of flavonoids. Six 5-year-old Camptotheca acuminata trees were harvested. The wood materials were classified into: trunk wood without bark, trunk wood with bark, branch wood without bark, and branch wood with bark. The sample materials were chipped and milled into uniformly small particles (20-30 mesh) and soaked in water for a week. The southern yellow pine wood was prepared in the same size as the control sample. […]

subterranean termites = details: for Damage to the treated wood sample: 4-week observation period; for Termites dead within 24 hours: of 30 termites
Procedure: 180 active subterranean termites, were grown in 9 cm Petri dishes in the dark with 30 termites in each of six dishes. In each dish, a filter paper is on the bottom to retain moisture along with a piece of treated southern yellow pine wood (relatively fresh, 3×3×7 cm). The wood was treated with one of the following natural products isolated from Camptotheca acuminata or water (as control) for 30 minutes and then dried: (1) pure CPT (>97%) (3.8 mg/l=3.8 ppm, with water as the solvent); (2) OHCPT (10-hydroxycamptothecin: 3.8 mg/l=3.8 ppm, with water as the solvent); (3) raw extraction of CPTs from young tissues (alkaloids: 8.75 mg/l=8.75 ppm, with 95% ethanol as the solvent); (4) flavonoids (13.9 mg/l=13.9 ppm with water as the solvent); (5) ethanol (95%); and (6) water (control). The termites and wood condition were checked and recorded every hour for the first 12 hours and every 8 hrs thereafter. The observation period was 4 weeks (May 20 to Jun. 17, 2000).

[5] = test system: Masson pine caterpillar (Dendrolimus punctatus); details: cited from earlier work
[6] = 15 termites per dish, wood treated 30 min, CPT 3.8 ppm, raw CPTs 8.75 ppm, flavonoids 13.9 ppm
[7] = 30 termites per dish, CPT 3.8 ppm, OHCPT 3.8 ppm, raw CPTs 8.75 ppm, flavonoids 13.9 ppm, ethanol 95%

CC[C@@]1(O)C(=O)OCc2c1cc1n(c2=O)Cc2cc3ccccc3nc2-1 [CPT, camptothecin]
Damage to the treated wood sample ([1]; 4-week observation period): no obvious damage | Time within which termite mortality was 100% ([1]; 15 termites per dish, CPT 3.8 ppm, raw CPTs 8.75 ppm): ≤ 4 days | Mortality within 1 week [1, 6]: 100% | Mortality within 4 weeks [1, 6]: 100% | Mortality within 1 week ([1]; 15 termites per dish, wood treated 30 min, CPT 3.8 ppm, raw CPTs 8.75 ppm, flavonoids 13.9 ppm, listed as purified CPT): all termites dead | Time after which termites became inactive ([1]; CPT 3.8 ppm): 6 h | Termites dead within 36 hours ([1]; of total 15 termites, CPT 3.8 ppm): Six | Termite damage of treated pine stakes within a week ([1]; summary of Examples 1 and 2): damage free | Termite damage of treated wood (based on weight) ([2]; field, three months, CPT 380 ppm, raw CPTs 8.75 ppm, flavonoids 13.9 ppm): no termite damage | Termite damage of treated southern yellow pine lumber in the field ([2]; within 3 months): damage-free | Extraction by water soak at day 7 (FIG. 3) ([3]; day 7): not extracted | Extraction by water soak at day 30 (FIG. 3) ([3]; day 30): remains water insoluble | Effect of particleboard process on CPT content [4]: no significant effect | Damage to the treated wood sample (subterranean termites): no obvious damage | Time within which termite mortality was 100% (subterranean termites; 30 termites per dish): ≤ 5 days | Mortality within 1 week (subterranean termites; [7]): 100% | Mortality within 4 weeks (subterranean termites; [7]): 100% | Time after which all termites became inactive (subterranean termites; CPT 3.8 ppm): 10 h | Termite behaviour toward the treated wood (repellency / attraction) (subterranean termites; in vivo): avoided getting close to the wood after the initial contract | Termites dead within 24 hours (subterranean termites): 12 | Hatchability of eggs ([5]; after treatment with 0.05% CPT): decreased | Mortality of insect larvae, pupae, and adults ([5]; after treatment with CPT): increased

CC[C@@]1(O)C(=O)OCc2c1cc1n(c2=O)Cc2cc3cc(O)ccc3nc2-1 [OHCPT, 10-hydroxycamptothecin]
Damage to the treated wood sample (subterranean termites): no obvious damage | Time within which termite mortality was 100% (subterranean termites; 30 termites per dish): ≤ 6 days | Mortality within 1 week (subterranean termites; [7]): 100% | Mortality within 4 weeks (subterranean termites; [7]): 100% | Termites dead within 24 hours (subterranean termites): 16

CCO [Ethanol, ethanol]
Damage to the treated wood sample (subterranean termites): No wood damage | Mortality within 1 week (subterranean termites; in vivo): 100% | Mortality within 4 weeks (subterranean termites; in vivo): 100%
